This is an account of results in PubChem BioAssay AID2060500 (Molecular Pharmacology Branch, DTP, NCI, 2025).

The assay relates to 596521-263-R-J1-PDC complex spheroids, viability % of control. Kind of assay: Anticancer human tumor 596521-263-R-J1-PDC patient-derived soft tissue sarcoma cell line growth inhibition [GQUAD]. The note with it: for viability, T/C: stronger effect = lower value. The source says:
DNA G-quadruplex Stabilizer Agents in Combinations in Complex Spheroids
A high-throughput screen of multi-cell type tumor spheroids was designed to identify active combinations of DNA G-quadruplex stabilizer agents and targeted small molecules. Complex spheroids include a stromal component modeled by human endothelial cells (HUVEC) and fibroblasts modeled by human mesenchymal stem cells (MSCs). The concentration ranges selected for each drug and investigational agent were based upon clinically achievable concentrations if the clinical Cmax of the agent was known.
Compounds. The drugs and investigational agents: pidnarulex (CX-5461; NSC782164), APTO-253 (NSC789042), BRACO-19 (NSC847499), peposertib (NSC802822), ceralasertib (NSC780249), elimusertib (NSC800525), camonsertib (NSC841442), AZD-1390 (NSC803789), olaparib (NSC753686), talazoparib (NSC767125), ART-558 (NSC835418), sotorasib (NSC818433), MRTX-1133 (NSC836407), SN-38 (NSC673596), topotecan (NSC609699), etoposide (NSC141540), doxorubicin (NSC123127), gemcitabine (NSC613327), 5-fluorouracil (NSC19893), paclitaxel (NSC125973), vemurafenib (NSC761431), panobinostat (NSC761190), R-306465 (JNJ-16241199; NSC773264), adavosertib (NSC754352), TP-3654 (NSC805149), carboplatin (NSC241240), KSQ-4279 (NSC840948), and staurosporine (NSC755774) were obtained from the National Cancer Institute (NCI) Developmental Therapeutics Program Chemical Repository (34). The FDA-approved anticancer drug set is available from the NCI Developmental Therapeutics Program. […] The stock solutions were prepared in dimethyl sulfoxide (DMSO, Sigma-Aldrich, St. Louis, MO, cat. D2650) at 800-fold the tested concentration and stored at -70 degrees C prior to their use. All drugs and investigational agents were tested over a range starting from a high concentration at or near the clinical Cmax and decreasing in half-log increments. If the clinical Cmax for an agent had not been determined, the highest concentration tested was 10 microM.
2.3 Cell Culture. All cells were maintained in an incubator at 37 degrees C and 5% CO2 with 95% humidity. The PDC lines were cultured according to standard operating procedures established by the NCI PDMR. All PDCs were thawed and cultured in Matrigel-coated flasks prepared with a working solution of 1X Ham's F-12 nutrient mix, without supplementation (Invitrogen, cat. 11765054), 100 U/mL penicillin-streptomycin (Invitrogen, cat. 15140122), and 2.5% Matrigel (Corning Inc., cat. 354248) for the first three passages. The 857933-349-R-J2-PDC line was cultured in 6C/Colon 1B media, which includes advanced DMEM/F-12 (Thermo Fisher Scientific, cat. 12634028), 10 mM HEPES (Thermo Fisher Scientific, cat. 15630080), 1X GlutaMAX supplement (Thermo Fisher Scientific, cat. 35050061), 0.1 mg/mL primocin (InvivoGen, cat. ant-pm-2), 10% defined fetal bovine serum, heat inactivated (HyClone Laboratories Inc., cat. SH30070.03HI), 50% L-WRN conditioned media (ATCC, cat. CRL-3276), 1.25 mM N-Acetyl-L-cysteine (Sigma-Aldrich, cat. A9165), 10 mM nicotinamide (Sigma-Aldrich, cat. N0636), 1X B-27 supplement (Thermo Fisher Scientific, cat. 17504044), 1X N-2 supplement (Thermo Fisher Scientific, cat. 17502048), 10 microM Y-27632 dihydrochloride (Tocris Bioscience, cat. 1254), and 50 ng/mL human EGF recombinant protein (Thermo Fisher Scientific, cat. PHG0311). The 485176-168-R4-J1-PDC line was cultured in Panc media, which includes all 6C/Colon 1B media components plus 100 ng/mL human FGF-10 (Thermo Fisher Scientific, cat. 100-26), 500 nM SB-431542 (Selleckchem, cat. S1067), and gastrin (Tocris, cat. 3006).
[…]

“And” between values parts separate entries of the source, which are not always exact repeats. Equal values may be shown once. Bounds are passed on as bounds.

In general, IC50 refers to the point on the concentration scale where inhibition reaches its midpoint. The viability, T/C is the ratio of treated to control.
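Further: spheroids exposed to drugs for 7 days before viability reading.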

As for `Cc1[nH]c2ccccc2c1CCNCc1ccc(/C=C/C(=O)NO)cc1` + CN(C)c1ccc(Nc2c3ccc(NC(=O)CCN4CCCC4)cc3nc3cc(NC(=O)CCN4CCCC4)ccc23)cc1, the half-maximal inhibitory concentration (IC50) (curve of first compound, second compound 0.0316 µM) came to 46.6 nM; the IC50 (curve of first compound, second compound 0.1 µM) was 42.4 nM; the IC50 (curve of first compound, second compound 0.316 µM) stood at 31.8 nM; the IC50 (curve of first compound, second compound 1 µM) came out at 36.8 nM; the IC50 (curve of first compound, second compound 3.16 µM) was 24.9 nM; the half-inhibitory concentration (IC50) (curve of first compound, second compound 10 µM) worked out at 13.5 nM. The viability, T/C is 102% (second compound 0.0316 µM, first compound 0.000999 µM); 89.2% (second compound 0.0316 µM, first compound 0.00316 µM); 79.8% (second compound 0.0316 µM, first compound 0.00999 µM); 58.1% (second compound 0.0316 µM, first compound 0.0316 µM); 32.9% (second compound 0.0316 µM, first compound 0.0999 µM); 1.76% (second compound 0.0316 µM, first compound 0.316 µM). The viability, T/C by setting is: (second compound 0.1 µM, first compound 0.000999 µM) 94.7%; (second compound 0.1 µM, first compound 0.00316 µM) 94.9%; (second compound 0.1 µM, first compound 0.00999 µM) 78.1%; (second compound 0.1 µM, first compound 0.0316 µM) 58.4%; (second compound 0.1 µM, first compound 0.0999 µM) 27.4%; (second compound 0.1 µM, first compound 0.316 µM) 2.91%. Also, the viability, T/C is, setting by setting: (second compound 0.316 µM, first compound 0.000999 µM) 102%; (second compound 0.316 µM, first compound 0.00316 µM) 81.3%; (second compound 0.316 µM, first compound 0.00999 µM) 77%; (second compound 0.316 µM, first compound 0.0316 µM) 50.4%; (second compound 0.316 µM, first compound 0.0999 µM) 22.8%; (second compound 0.316 µM, first compound 0.316 µM) 1.67%. In addition, the viability, T/C was 90.6% (second compound 1 µM, first compound 0.000999 µM); 88.3% (second compound 1 µM, first compound 0.00316 µM); 75.6% (second compound 1 µM, first compound 0.00999 µM); 54.8% (second compound 1 µM, first compound 0.0316 µM); 23.3% (second compound 1 µM, first compound 0.0999 µM); 1.36% (second compound 1 µM, first compound 0.316 µM). Besides, the viability, T/C is, setting by setting: (second compound 3.16 µM, first compound 0.000999 µM) 78.6%; (second compound 3.16 µM, first compound 0.00316 µM) 82.4%; (second compound 3.16 µM, first compound 0.00999 µM) 64.7%; (second compound 3.16 µM, first compound 0.0316 µM) 46.2%; (second compound 3.16 µM, first compound 0.0999 µM) 18.4%; (second compound 3.16 µM, first compound 0.316 µM) 1.06%. In addition, the viability, T/C was 62.2% (second compound 10 µM, first compound 0.000999 µM); 53.7% (second compound 10 µM, first compound 0.00316 µM); 57.4% (second compound 10 µM, first compound 0.00999 µM); 36.4% (second compound 10 µM, first compound 0.0316 µM); 13.3% (second compound 10 µM, first compound 0.0999 µM); 0.5% (second compound 10 µM, first compound 0.316 µM).

On to `C#Cc1c(F)ccc2cc(O)cc(-c3ncc4c(N5CC6CCC(C5)N6)nc(OCC56CCCN5CC(F)C6)nc4c3F)c12` (stereo not given), for which the viability, T/C runs as follows: (compound 0.0316 µM) 87.5% and 92.6% and 98.3%; (compound 0.1 µM) 94.6% and 94.2% and 103%; (compound 0.316 µM) 92.4% and 101% and 107%; (compound 1 µM) 89.7% and 67.3% and 92.5%; (compound 3.16 µM) 124% and 22.8% and 104%; (compound 10 µM) 75% and 22.5% and 78.4%. Besides, for the setting “curve of compound”, the IC50 is > 10000 nM and 1560 nM.

`O=C(c1cc(Cc2n[nH]c(=O)c3ccccc23)ccc1F)N1CCN(C(=O)C2CC2)CC1`: the viability, T/C is, setting by setting: (compound 0.0316 µM) 102% and 96.8% and 103%; (compound 0.1 µM) 95.1% and 97.1% and 87.4%; (compound 0.316 µM) 87.9% and 88.9% and 100%; (compound 1 µM) 89.7% and 89.3% and 95.3%; (compound 3.16 µM) 92.5% and 79.6% and 86.6%; (compound 10 µM) 68.4% and 67.2% and 66.9%. Moreover, where the note is “curve of compound”, the IC50 was more than 10000 nM.

For `CC1COCCN1c1cc(-c2ccnn2C)c2ccnc(-c3ccn[nH]3)c2n1` (stereo not given), the viability, T/C was 78.3% and 73.2% and 70.2% (compound 0.0316 µM); 59.2% and 55.7% and 62.7% (compound 0.1 µM); 57.2% and 47.1% and 50.2% (compound 0.316 µM); 43.9% and 42.6% and 44.5% (compound 1 µM); 30.3% and 34% and 31.6% (compound 3.16 µM); 24.4% (2×) and 23.9% (compound 10 µM). For the same compound, where the note is “curve of compound”, the IC50 is 452 nM and 275 nM and 412 nM.

In the case of `CC[C@@]1(O)C(=O)OCc2c1cc1n(c2=O)Cc2cc3c(CN(C)C)c(O)ccc3nc2-1`, the viability, T/C runs as follows: (compound 0.000999 µM) 102% and 100% and 105%; (compound 0.00316 µM) 102% and 88.7% and 106%; (compound 0.00999 µM) 87.2% and 87.7% and 96.7%; (compound 0.0316 µM) 78.6% and 59.5% and 63.7%; (compound 0.0999 µM) 57.2% and 51.5% and 58.3%; (compound 0.316 µM) 52.4% and 46.4% and 50.7%. Besides, the half-maximal inhibitory concentration (IC50) (curve of compound) was > 316 nM and 93.3 nM.
